From patent US20230295113A1, “NLRP3 MODULATORS” (ZOMAGEN BIOSCIENCES LTD, priority 2022, published 2023) come the findings set out here.

Where only a bound is given, the exact number is not on record here.

In one experiment the test system is IL-1b. As to the kind of experiment: Human Monocyte IL-1b Assay. In kind it is cell-based. Conditions: Homo sapiens, Monocyte, fresh human whole blood; compound 0.5 h, 100 ng/mL LPS 3.5 h at 37° C., 5 mM ATP 45 min; IL-1b in supernatant by ELISA. The method, then: Example 46: Human Monocyte IL-1b Assay
Serially diluted testing compounds were incubated with […] of fresh human whole blood for 0.5 hours. Cells were primed with 100 ng/mL lipopolysaccharide (LPS) for 3.5 hours at 37° C. followed by stimulation with 5 mM ATP for an additional 45 minutes. The concentration of IL-1b concentration in the supernatant was determined with commercially available ELISA kits. Negative controls are wells without stimulation, while positive controls are wells with stimulation but only DMSO without compounds added. After background subtraction, compound treatment wells were then normalized to the positive controls for IC50 calculations.
For orientation: An ELISA detects its analyte on a solid surface through an enzyme-linked reagent.
For `Cc1cc([C@@H](O)[C@]2(C)CCCN(C)C2)nnc1-c1ccc(C(F)(F)F)cc1O` [Compound 27B, 2-(6-((S)-((R)-1,3-dimethylpiperidin-3-yl)(hydroxy)methyl)-4-methylpyridazin-3-yl)-5-(trifluoromethyl)phenol], the IC50 lay within 3 to 10 µM.
The compound `Cc1cc([C@H](O)C2CN3CCC2CC3)nnc1-c1ccc(C(F)(F)F)cc1O` (stereo partly drawn) [Compound 28A, 2-(6-((1R)-hydroxy(quinuclidin-3-yl)methyl)-4-methylpyridazin-3-yl)-5-(trifluoromethyl)phenol] showed an IC50 below 0.5 µM.
Compound `Cc1cc([C@@H](O)C2CN3CCC2CC3)nnc1-c1ccc(C(F)(F)F)cc1O` (stereo partly drawn) [Compound 28B, 2-(6-((1S)-hydroxy(quinuclidin-3-yl)methyl)-4-methylpyridazin-3-yl)-5-(trifluoromethyl)phenol] had an IC50 of 0.5 to 3 µM.
With `COc1cc(C(F)(F)F)ccc1-c1nnc(C(O)C2CN(C)C2)cc1C` (centres unmarked) [Compound 30, (6-(2-methoxy-4-(trifluoromethyl)phenyl)-5-methylpyridazin-3-yl)(1-methylazetidin-3-yl)methanol], the IC50 was 3 to 10 µM.
As to `Cc1cc(C(O)C2CN(C)C2)nnc1-c1ccc(C(F)(F)F)cc1O` (centres unmarked) [Compound 31, 2-(6-(hydroxy(1-methylazetidin-3-yl)methyl)-4-methylpyridazin-3-yl)-5-(trifluoromethyl)phenol], the IC50 was below 0.5 µM.
In turn, `Cc1cc(C(O)C2CCC3CCC2N3C)nnc1-c1ccc(C(F)(F)F)cc1O` (centres unmarked) [Compound 34, 2-(6-(hydroxy(8-methyl-8-azabicyclo[3.2.1]octan-2-yl)methyl)-4-methylpyridazin-3-yl)-5-(trifluoromethyl)phenol] showed an IC50 below 0.5 µM.
Take `Cc1cc(C(O)C23CC(CN(C)C2)C3)nnc1-c1ccc(C(F)(F)F)cc1O` (centres unmarked) [Compound 35, 2-(6-(hydroxy(3-methyl-3-azabicyclo[3.1.1]heptan-1-yl)methyl)-4-methylpyridazin-3-yl)-5-(trifluoromethyl)phenol]: the IC50 is 0.5 to 3 µM.
In turn, `Cc1cc(C(O)C2CCC3CCCN3C2)nnc1-c1ccc(C(F)(F)F)cc1O` (centres unmarked) [Compound 38, 2-(6-(hydroxy(octahydroindolizin-6-yl)methyl)-4-methylpyridazin-3-yl)-5-(trifluoromethyl)phenol] yielded an IC50 of 0.5 to 3 µM.
As for `Cc1cc(C(O)C2CCCCN2C)nnc1-c1ccc(C(F)(F)F)cc1O` (centres unmarked) [Compound 39, 2-(6-(hydroxy(1-methylpiperidin-2-yl)methyl)-4-methylpyridazin-3-yl)-5-(trifluoromethyl)phenol], the IC50 was below 0.5 µM.

Still in this experiment, the particulars now being: Monocyte; fresh human whole blood; compound 0.5 h, 100 ng/mL LPS 3.5 h at 37° C., 5 mM ATP 45 min; IL-1b in supernatant by ELISA.
Turning to `Cc1cc(C(O)C23CCCN(CC2)C3)nnc1-c1ccc(C(F)(F)F)cc1O` (centres unmarked) [Compound 29, 2-(6-((1-azabicyclo[3.2.1]octan-5-yl)(hydroxy)methyl)-4-methylpyridazin-3-yl)-5-(trifluoromethyl)phenol], the IC50 was 0.5 to 3 µM.
Regarding `Cc1cc(C(O)C2CCCCN(C)C2)nnc1-c1ccc(C(F)(F)F)cc1O` (centres unmarked) [Compound 32, 2-(6-(hydroxy(1-methylazepan-3-yl)methyl)-4-methylpyridazin-3-yl)-5-(trifluoromethyl)phenol], the IC50 was below 0.5 µM.
The same measure, in the same setting: the value for `Cc1cc(C(O)C23CCC(CC2)N(C)C3)nnc1-c1ccc(C(F)(F)F)cc1O` (centres unmarked) [Compound 33, 2-(6-(hydroxy(2-methyl-2-azabicyclo[2.2.2]octan-4-yl)methyl)-4-methylpyridazin-3-yl)-5-(trifluoromethyl)phenol] was 0.5 to 3 µM; that for `Cc1cc(C(O)C2CC3CC2N(C)C3)nnc1-c1ccc(C(F)(F)F)cc1O` (centres unmarked) [Compound 36, 2-(6-(hydroxy(2-methyl-2-azabicyclo[2.2.1]heptan-6-yl)methyl)-4-methylpyridazin-3-yl)-5-(trifluoromethyl)phenol] was below 0.5 µM.
The compound `Cc1cc([C@H](O)[C@@H]2CC[C@H]3CCC(=O)N3C2)nnc1-c1ccc(C(F)(F)F)cc1O` [Compound 37, (6R,8aS)-6-((R)-hydroxy(6-(2-hydroxy-4-(trifluoromethyl)phenyl)-5-methylpyridazin-3-yl)methyl)hexahydroindolizin-3(2H)-one] yielded a half-maximal inhibitory concentration (IC50) of 0.5 to 3 µM.

What is called IC50 is the concentration that gives 50% inhibition.
